The target of the test is human α7 nAChR (Homo sapiens, UniProt P36544). Kind of test: Automated patch-clamp electrophysiology functional assay (Assay A). Format: cell-based. Particulars: IonFlux HT whole-cell population patch, HEK cell line stably expressing human RIC-3 and human α7, 40 μM acetylcholine. The gist of the method:
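Whole-cell population patch clamp at room temperature on HEK cells stably expressing human α7 and RIC-3, held at −60 mV. Compounds tested at three ascending concentrations per recording, with or without 40 μM acetylcholine; currents quantified relative to an initial 1 s 40 μM acetylcholine response; EC50 from concentration series.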
(The patch-clamp technique gives a direct electrical read-out from membranes.)

Molecules are shown by their SMILES. Like-named read-outs stand apart in the source and are kept apart here.

Sequence of human α7 nAChR (P36544 23-502): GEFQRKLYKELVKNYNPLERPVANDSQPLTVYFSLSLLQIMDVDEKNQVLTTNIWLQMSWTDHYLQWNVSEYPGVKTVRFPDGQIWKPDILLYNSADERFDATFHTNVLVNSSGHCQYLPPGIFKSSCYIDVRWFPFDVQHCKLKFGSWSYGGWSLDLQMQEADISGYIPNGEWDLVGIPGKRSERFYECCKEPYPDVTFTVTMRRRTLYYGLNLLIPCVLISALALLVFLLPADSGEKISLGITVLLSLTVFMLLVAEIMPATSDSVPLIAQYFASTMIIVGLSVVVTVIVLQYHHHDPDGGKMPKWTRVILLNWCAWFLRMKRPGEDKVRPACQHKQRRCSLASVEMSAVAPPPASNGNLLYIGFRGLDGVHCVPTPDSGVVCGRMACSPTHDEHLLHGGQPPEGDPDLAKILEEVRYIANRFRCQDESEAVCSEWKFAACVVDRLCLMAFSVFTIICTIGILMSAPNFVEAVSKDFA

Regarding `CC1(C)[C@@H](c2ccc(S(N)(=O)=O)nc2)[C@@H]1c1ncc(C2CCCC2)o1` [Example B14, 5-[(1S,3S)-3-(5-Cyclopentyl-1,3-oxazol-2-yl)-2,2-dimethylcyclopropyl]pyridine-2-sulfonamide], the EC50 (read-out: α7 nAChR EC50) was 0.59 µM and the EC50 (read-out: α7 nAChR Potency) is 0.5 to 5 µM.
For `CC1(C)[C@@H](c2ccc(S(N)(=O)=O)nc2)[C@@H]1c1ncc(C2CCCC2)s1` [Example B16, 5-[(1S,3S)-3-(5-Cyclopentyl-1,3-thiazol-2-yl)-2,2-dimethylcyclopropyl]pyridine-2-sulfonamide], the EC50 reads like this: (read-out: α7 nAChR EC50) 1.5 µM; (read-out: α7 nAChR Potency) 0.5 to 5 µM.
With `CC1(C)[C@H](c2nc(-c3ccccc3)no2)[C@H]1c1ncc(S(N)(=O)=O)s1` [Example D9, 2-[(1R,3R)-2,2-Dimethyl-3-(3-phenyl-1,2,4-oxadiazol-5-yl)cyclopropyl]-1,3-thiazole-5-sulfonamide], the EC50 was 1.7 µM (read-out: α7 nAChR EC50) and 0.5 to 5 µM (read-out: α7 nAChR Potency).
Consider `CC1(C)[C@H](c2ccc(S(N)(=O)=O)cn2)[C@H]1c1nc(-c2cccc(F)c2)no1` [Example E1, 6-{(1R,3R)-3-[3-(3-Fluorophenyl)-1,2,4-oxadiazol-5-yl]-2,2-dimethylcyclopropyl}pyridine-3-sulfonamide], for which the EC50 by setting is: (read-out: α7 nAChR EC50) 4 µM; (read-out: α7 nAChR Potency) 0.5 to 5 µM.
As for `CC1(C)[C@H](c2ccc(S(N)(=O)=O)cn2)[C@H]1c1nc(C2CCCC2)no1` [Example E2, 6-[(1R,3R)-3-(3-Cyclopentyl-1,2,4-oxadiazol-5-yl)-2,2-dimethylcyclopropyl]pyridine-3-sulfonamide], the EC50 was 3.2 µM (read-out: α7 nAChR EC50) and 0.5 to 5 µM (read-out: α7 nAChR Potency).
In the case of `CC1(C)[C@H](c2ccc(S(N)(=O)=O)cn2)[C@H]1c1nc(-c2ccccc2)no1` [Example E3, 6-[(1R,3R)-2,2-Dimethyl-3-(3-phenyl-1,2,4-oxadiazol-5-yl)cyclopropyl]pyridine-3-sulfonamide], the EC50 (read-out: α7 nAChR Potency) lay in the range of 0.5 to 5 µM.
For `COc1ccc(Cl)cc1-c1noc([C@@H]2[C@@H](c3ccc(S(N)(=O)=O)cn3)C2(C)C)n1` [Example E4, 6-{(1R,3R)-3-[3-(5-Chloro-2-methoxyphenyl)-1,2,4-oxadiazol-5-yl]-2,2-dimethylcyclopropyl}pyridine-3-sulfonamide], the EC50 (read-out: α7 nAChR EC50) amounted to 5.4 µM and the EC50 (read-out: α7 nAChR Potency) lay within 5 to 50 µM.
On to `CC1(C)[C@H](c2ccc(S(N)(=O)=O)cn2)[C@H]1c1nc(-c2ccc(F)cc2F)no1` [Example E5, 6-{(1R,3R)-3-[3-(2,4-Difluorophenyl)-1,2,4-oxadiazol-5-yl]-2,2-dimethylcyclopropyl}pyridine-3-sulfonamide], for which the EC50 (read-out: α7 nAChR EC50) was 1.3 µM and the EC50 (read-out: α7 nAChR Potency) is 0.5 to 5 µM.
Take `CC1(C)[C@H](c2ccc(S(N)(=O)=O)cn2)[C@H]1c1nc(-c2cccc(C(F)(F)F)c2)no1` [Example E6, 6-[(1R,3R)-2,2-Dimethyl-3-{3-[3-(trifluoromethyl)phenyl]-1,2,4-oxadiazol-5-yl}cyclopropyl]pyridine-3-sulfonamide]: where the note is “read-out: α7 nAChR Potency”, the EC50 fell in the range of 0.5 to 5 µM.
Regarding `CC1(C)[C@H](c2ccc(S(N)(=O)=O)cn2)[C@H]1c1nc(C2CCCCC2)no1` [Example E7, 6-[(1R,3R)-3-(3-Cyclohexyl-1,2,4-oxadiazol-5-yl)-2,2-dimethylcyclopropyl]pyridine-3-sulfonamide], the EC50 (read-out: α7 nAChR Potency) was in the range of 0.5 to 5 µM.
For the compound `CC1(C)[C@@H](c2ccc(S(N)(=O)=O)cn2)[C@@H]1c1nc(-c2cccc(F)c2)no1` [Example F1, 6-{(1S,3S)-3-[3-(3-Fluorophenyl)-1,2,4-oxadiazol-5-yl]-2,2-dimethylcyclopropyl}pyridine-3-sulfonamide], the EC50 by setting is: (read-out: α7 nAChR EC50) 1.1 µM; (read-out: α7 nAChR Potency) 0.5 to 5 µM.
On to `CC1(C)[C@@H](c2ccc(S(N)(=O)=O)cn2)[C@@H]1c1nc(-c2cncc(C(F)(F)F)c2)no1` [Example F2, 6-[(1S,3S)-2,2-Dimethyl-3-{3-[5-(trifluoromethyl)pyridin-3-yl]-1,2,4-oxadiazol-5-yl}cyclopropyl]pyridine-3-sulfonamide], for which the EC50 (read-out: α7 nAChR EC50) is 3.3 µM and the EC50 (read-out: α7 nAChR Potency) was in the range of 0.5 to 5 µM.
With `CC1(C)[C@@H](c2ccc(S(N)(=O)=O)cn2)[C@@H]1c1nc(C2CCCC2)no1` [Example F3, 6-[(1S,3S)-3-(3-Cyclopentyl-1,2,4-oxadiazol-5-yl)-2,2-dimethylcyclopropyl]pyridine-3-sulfonamide], the EC50 was 0.34 µM (read-out: α7 nAChR EC50) and 0.1 to 0.5 µM (read-out: α7 nAChR Potency).
`COc1ccc(Cl)cc1-c1noc([C@H]2[C@H](c3ccc(S(N)(=O)=O)cn3)C2(C)C)n1` [Example F4, 6-{(1S,3S)-3-[3-(5-Chloro-2-methoxyphenyl)-1,2,4-oxadiazol-5-yl]-2,2-dimethylcyclopropyl}pyridine-3-sulfonamide]: the EC50 (read-out: α7 nAChR Potency) lay in the range of 0.5 to 5 µM.
As for `CC1(C)[C@@H](c2ccc(S(N)(=O)=O)cn2)[C@@H]1c1nc(-c2ccc(F)cc2F)no1` [Example F5, 6-{(1S,3S)-3-[3-(2,4-Difluorophenyl)-1,2,4-oxadiazol-5-yl]-2,2-dimethylcyclopropyl}pyridine-3-sulfonamide], the EC50 (read-out: α7 nAChR EC50) worked out at 1.7 µM and the EC50 (read-out: α7 nAChR Potency) is 0.5 to 5 µM.
On to `CC1(C)[C@@H](c2ccc(S(N)(=O)=O)cn2)[C@@H]1c1nc(-c2cccc(C(F)(F)F)c2)no1` [Example F6, 6-[(1S,3S)-2,2-Dimethyl-3-{3-[3-(trifluoromethyl)phenyl]-1,2,4-oxadiazol-5-yl}cyclopropyl]pyridine-3-sulfonamide], for which the EC50 runs as follows: (read-out: α7 nAChR EC50) 2.7 µM; (read-out: α7 nAChR Potency) 0.5 to 5 µM.
As to `CC1(C)[C@@H](c2ccc(S(N)(=O)=O)cn2)[C@@H]1c1nc(CC2CC2)no1` [Example F7, 6-{(1S,3S)-3-[3-(Cyclopropylmethyl)-1,2,4-oxadiazol-5-yl]-2,2-dimethylcyclopropyl}pyridine-3-sulfonamide], the EC50 is, setting by setting: (read-out: α7 nAChR EC50) 1.5 µM; (read-out: α7 nAChR Potency) 0.5 to 5 µM.
For the compound `CC1(C)[C@@H](c2ccc(S(N)(=O)=O)cn2)[C@@H]1c1nc(C2CC2)no1` [Example F8, 6-[(1S,3S)-3-(3-Cyclopropyl-1,2,4-oxadiazol-5-yl)-2,2-dimethylcyclopropyl]pyridine-3-sulfonamide], the EC50 is, setting by setting: (read-out: α7 nAChR EC50) 1.4 µM; (read-out: α7 nAChR Potency) 0.5 to 5 µM.
Consider `CC(C)(C)c1noc([C@H]2[C@H](c3ccc(S(N)(=O)=O)cn3)C2(C)C)n1` [Example F9, 6-[(1S,3S)-3-(3-tert-Butyl-1,2,4-oxadiazol-5-yl)-2,2-dimethylcyclopropyl]pyridine-3-sulfonamide], for which the EC50 (read-out: α7 nAChR Potency) was in the range of 0.5 to 5 µM.
On to `CC1(C)[C@@H](c2ccc(S(N)(=O)=O)cn2)[C@@H]1c1nc(-c2ccccc2)no1` [Example F10, 6-[(1S,3S)-2,2-Dimethyl-3-(3-phenyl-1,2,4-oxadiazol-5-yl)cyclopropyl]pyridine-3-sulfonamide], for which the EC50 runs as follows: (read-out: α7 nAChR EC50) 1.1 µM; (read-out: α7 nAChR Potency) 0.5 to 5 µM.
For `CC1(C)[C@@H](c2ccc(S(N)(=O)=O)cn2)[C@@H]1c1nc(-c2cncc(F)c2)no1` [Example F11, 6-{(1S,3S)-3-[3-(5-Fluoropyridin-3-yl)-1,2,4-oxadiazol-5-yl]-2,2-dimethylcyclopropyl}pyridine-3-sulfonamide], the EC50 by setting is: (read-out: α7 nAChR EC50) 3.4 µM; (read-out: α7 nAChR Potency) 0.5 to 5 µM.
`CC1(C)[C@@H](c2ccc(S(N)(=O)=O)cn2)[C@@H]1c1nc(C2CC(F)(F)C2)no1` [Example F12, 6-{(1S,3S)-3-[3-(3,3-Difluorocyclobutyl)-1,2,4-oxadiazol-5-yl]-2,2-dimethylcyclopropyl}pyridine-3-sulfonamide]: the EC50 (read-out: α7 nAChR EC50) was 1.9 µM and the EC50 (read-out: α7 nAChR Potency) is 0.5 to 5 µM.
With `CC1(C)[C@@H](c2ccc(S(N)(=O)=O)cn2)[C@@H]1c1nc(C2CCC2)no1` [Example F13, 6-[(1S,3S)-3-(3-Cyclobutyl-1,2,4-oxadiazol-5-yl)-2,2-dimethylcyclopropyl]pyridine-3-sulfonamide], the EC50 (read-out: α7 nAChR Potency) was 0.5 to 5 µM.
Regarding `CC(C)c1noc([C@H]2[C@H](c3ccc(S(N)(=O)=O)cn3)C2(C)C)n1` [Example F14, 6-{(1S,3S)-2,2-Dimethyl-3-[3-(propan-2-yl)-1,2,4-oxadiazol-5-yl]cyclopropyl}pyridine-3-sulfonamide], the EC50 was 1.6 µM (read-out: α7 nAChR EC50) and 0.5 to 5 µM (read-out: α7 nAChR Potency).

The values above are taken from US11198687B2, “Heteroaryl allosteric modulators of nicotinic acetylcholine receptors” (Merck Sharp & Dohme Corp., priority 2017, dated 2021).
